Data taken from patent US6376552B1, “Treatment of gallstones” (Knoll Pharmaceutical Company, priority 1999, dated 2002).

System: gallstones
Experiment: administration to a patient during weight loss, development of gallstones
Type: in vivo, human
Settings: 10 mg orally once daily in the morning while patient is losing weight
Description: Sibutramine 10 mg orally once daily is administered in the morning during the time a patient is losing weight.

CC(C)CC(N(C)C)C1(c2ccc(Cl)cc2)CCC1 (stereo not shown) [Sibutramine, N,N-dimethyl-1-[1-(4-chlorophenyl)cyclobutyl]-3-methylbutylamine]
development of gallstones: does not develop gallstones
